Target: CDK2 (UniProt P24941)
Assay: Enzyme Assay
Settings: concentration not given here

| Structure (SMILES) | inhibition [%] |
| --- | --- |
| COc1ccc2[nH]c(-c3n[nH]c4ccc(NS(=O)(=O)c5ccccc5S(C)(=O)=O)cc34)cc2c1 | 100 |
| CS(=O)(=O)c1ccccc1S(=O)(=O)Nc1ccc2[nH]nc(C#Cc3ccccc3)c2c1 | 90 |
| CC(=O)Nc1n[nH]c2ccc(NS(=O)(=O)c3ccccc3S(C)(=O)=O)cc12 | 96 |
| CS(=O)(=O)c1ccccc1S(=O)(=O)Nc1ccc2[nH]nc(-c3cccc(O)c3)c2c1 | 73 |
| CS(=O)(=O)c1ccccc1S(=O)(=O)Nc1ccc2[nH]nc(-c3ccc(F)c(F)c3)c2c1 | 72 |
| O=S(=O)(Nc1ccc2[nH]nc(-c3ccccc3)c2c1)c1ccc2ccccc2c1 | 78 |
| Cc1ccc(-c2n[nH]c3ccc(NS(=O)(=O)c4ccccc4S(C)(=O)=O)cc23)cc1C | 75 |
| CS(=O)(=O)c1ccc(F)cc1S(=O)(=O)Nc1ccc2[nH]nc(-c3ccccc3)c2c1 | 87 |
| O=S(=O)(Nc1ccc2[nH]nc(-c3ccccc3)c2c1)c1cc(F)cc(F)c1 | 68 |
| N#Cc1cccc(S(=O)(=O)Nc2ccc3[nH]nc(-c4ccccc4)c3c2)c1 | 75 |
| CS(=O)(=O)c1ccccc1S(=O)(=O)Nc1ccc2[nH]nc(/C=C/c3ccc(Cl)cc3)c2c1 | 96 |
| Cc1cc(C)cc(-c2n[nH]c3ccc(NS(=O)(=O)c4ccccc4S(C)(=O)=O)cc23)c1 | 72 |
| O=S(=O)(Nc1ccc2[nH]nc(-c3ccccc3)c2c1)c1ccccc1F | 81 |
| CC(=O)c1ccc(-c2n[nH]c3ccc(NS(=O)(=O)c4ccccc4S(C)(=O)=O)cc23)cc1 | 56 |
| CS(=O)(=O)c1ccccc1S(=O)(=O)Nc1ccc2[nH]nc(-c3cc(Cl)cc(Cl)c3)c2c1 | 50 |
| CN(C)c1c(F)c(F)c(S(=O)(=O)Nc2ccc3[nH]nc(-c4cc5ccccc5[nH]4)c3c2)c(F)c1F | 53 |
| CS(=O)(=O)c1ccccc1S(=O)(=O)Nc1ccc2[nH]nc(-c3ccc(OCc4ccccc4)c(F)c3)c2c1 | 41 |
| O=S(=O)(Nc1ccc2[nH]nc(-c3ccccc3)c2c1)c1cccc2cccnc12 | 99 |
| CS(=O)(=O)c1ccccc1S(=O)(=O)Nc1ccc2[nH]nc(-c3ccc(F)cc3F)c2c1 | 83 |
| Nc1n[nH]c2ccc(NS(=O)(=O)c3cc(F)cc(F)c3)cc12 | 0 |
| O=C(NCc1ccc(S(=O)(=O)Nc2ccc3[nH]nc(-c4ccccc4)c3c2)s1)c1ccccc1 | 40 |

| Structure (SMILES) | inhibition [%] |
| --- | --- |
| CS(=O)(=O)c1ccccc1S(=O)(=O)Nc1ccc2[nH]nc(-c3cc(Br)cc(Br)c3)c2c1 | 45 |
| O=S(=O)(Nc1ccc2[nH]nc(-c3ccccc3)c2c1)c1ccccc1 | 84 |
| Cc1cccc(S(=O)(=O)Nc2ccc3[nH]nc(-c4ccccc4)c3c2)c1 | 72 |
| O=S(=O)(Nc1ccc2[nH]nc(-c3cc4ccccc4[nH]3)c2c1)c1ccccc1 | 100 |
| CS(=O)(=O)c1ccccc1S(=O)(=O)Nc1ccc2[nH]nc(-c3cccc(C#N)c3)c2c1 | 90 |
| CS(=O)(=O)c1ccccc1S(=O)(=O)Nc1ccc2[nH]nc(-c3ccc(Br)cc3)c2c1 | 75 |
| O=S(=O)(Nc1ccc2[nH]nc(-c3ccccc3)c2c1)c1cccc2nonc12 | 67 |
| CS(=O)(=O)c1ccccc1S(=O)(=O)Nc1ccc2[nH]nc(-c3cc(Cl)ccc3Cl)c2c1 | 27 |
| CS(=O)(=O)c1ccccc1S(=O)(=O)Nc1ccc2[nH]nc(-c3ccc(C(=O)O)cc3)c2c1 | 61 |
| CS(=O)(=O)c1ccccc1S(=O)(=O)Nc1ccc2[nH]nc(-c3ccco3)c2c1 | 76 |
| CS(=O)(=O)c1ccccc1S(=O)(=O)Nc1ccc2[nH]nc(-c3ccc(-c4ccccc4)cc3)c2c1 | 41 |
| CS(=O)(=O)c1ccccc1S(=O)(=O)Nc1ccc2[nH]nc(Sc3ccccc3)c2c1 | 82 |
| Cc1cc(-c2n[nH]c3ccc(NS(=O)(=O)c4ccccc4S(C)(=O)=O)cc23)ccc1F | 66 |
| CS(=O)(=O)c1ccccc1S(=O)(=O)Nc1ccc2[nH]nc(-c3cccc(C(F)(F)F)c3)c2c1 | 81 |
| C=Cc1ccc(-c2n[nH]c3ccc(NS(=O)(=O)c4ccccc4S(C)(=O)=O)cc23)cc1 | 77 |
| O=[N+]([O-])c1ccccc1S(=O)(=O)Nc1ccc2[nH]nc(-c3ccccc3)c2c1 | 81 |
| CN(C)c1cccc2c(S(=O)(=O)Nc3ccc4[nH]nc(-c5ccccc5)c4c3)cccc12 | 84 |
| Cc1ccccc1S(=O)(=O)Nc1ccc2[nH]nc(-c3ccccc3)c2c1 | 77 |
| CS(=O)(=O)c1ccccc1S(=O)(=O)Nc1ccc2[nH]nc(-c3ccc(OC(F)(F)F)cc3)c2c1 | 61 |
| O=S(=O)(Nc1ccc2[nH]nc(-c3ccccc3)c2c1)c1cccc2ccccc12 | 90 |
| O=S(=O)(Nc1ccc2[nH]nc(-c3ccccc3)c2c1)c1ccc(F)cc1 | 56 |

| Structure (SMILES) | inhibition [%] |
| --- | --- |
| CS(=O)(=O)c1ccc(-c2n[nH]c3ccc(NS(=O)(=O)c4ccccc4S(C)(=O)=O)cc23)cc1 | 75 |
| CS(=O)(=O)c1ccccc1S(=O)(=O)Nc1ccc2[nH]nc(-c3ccc(CO)cc3)c2c1 | 73 |
| CS(=O)(=O)c1ccccc1S(=O)(=O)Nc1ccc2[nH]nc(-c3ccc(Cl)cc3)c2c1 | 96 |
| CCOc1ccc(-c2n[nH]c3ccc(NS(=O)(=O)c4ccccc4S(C)(=O)=O)cc23)cc1 | 74 |
| CC1(C)[C@H]2CC[C@]1(CS(=O)(=O)Nc1ccc3[nH]nc(-c4ccccc4)c3c1)C(=O)C2 | 30 |
| CS(=O)(=O)c1ccccc1S(=O)(=O)Nc1ccc2[nH]nc(NC(=O)c3ccccc3)c2c1 | 95 |
| CS(=O)(=O)c1ccccc1S(=O)(=O)Nc1ccc2[nH]nc(-c3ccc(I)cc3)c2c1 | 20 |
| CS(=O)(=O)c1ccccc1S(=O)(=O)Nc1ccc2[nH]nc(-c3ccc(F)cc3)c2c1 | 94 |
| CCc1ccc(-c2n[nH]c3ccc(NS(=O)(=O)c4ccccc4S(C)(=O)=O)cc23)cc1 | 65 |
| CS(=O)(=O)c1ccccc1S(=O)(=O)Nc1ccc2[nH]nc(-c3cccc4c3oc3ccccc34)c2c1 | 13 |
| O=S(=O)(Nc1ccc2[nH]nc(-c3ccccc3)c2c1)c1ccccc1OC(F)(F)F | 74 |
| O=S(=O)(Nc1ccc2[nH]nc(-c3ccccc3)c2c1)c1cccs1 | 80 |
| CS(=O)(=O)c1ccccc1S(=O)(=O)Nc1ccc2[nH]nc(-c3cc4ccccc4[nH]3)c2c1 | 99 |
| CS(=O)(=O)c1ccccc1S(=O)(=O)Nc1ccc2[nH]nc(-c3ccc(Cl)cc3Cl)c2c1 | 23 |
| CS(=O)(=O)c1ccccc1S(=O)(=O)Nc1ccc2[nH]nc(-c3ccc(C#N)cc3)c2c1 | 86 |
| CS(=O)(=O)c1ccccc1S(=O)(=O)Nc1ccc2[nH]nc(-c3ccc[nH]3)c2c1 | 99 |
| CS(=O)(=O)c1ccccc1S(=O)(=O)Nc1ccc2[nH]nc(-c3nc4ccccc4[nH]3)c2c1 | 99 |
| COC(=O)/C=C/c1n[nH]c2ccc(NS(=O)(=O)c3ccccc3S(C)(=O)=O)cc12 | 37 |
| O=S(=O)(Nc1ccc2[nH]nc(-c3ccccc3)c2c1)c1ccccc1C(F)(F)F | 81 |
| CC(C)c1cc(C(C)C)c(S(=O)(=O)Nc2ccc3[nH]nc(-c4ccccc4)c3c2)c(C(C)C)c1 | 50 |
| CS(=O)(=O)c1ccccc1S(=O)(=O)Nc1ccc2[nH]nc(-c3cccc(OCc4ccccc4)c3)c2c1 | 0 |

| Structure (SMILES) | inhibition [%] |
| --- | --- |
| CS(=O)(=O)c1ccccc1S(=O)(=O)Nc1ccc2[nH]nc(-c3ccc(-c4ccccc4)c(F)c3)c2c1 | 0 |
| CS(=O)(=O)c1ccccc1S(=O)(=O)Nc1ccc2[nH]nc(-c3ccc(Cl)c(Cl)c3)c2c1 | 66 |
| Cc1ccc(-c2n[nH]c3ccc(NS(=O)(=O)c4ccccc4S(C)(=O)=O)cc23)cc1F | 70 |
| CS(=O)(=O)c1ccccc1S(=O)(=O)Nc1ccc2[nH]nc(-c3ccccc3-c3ccccc3)c2c1 | 27 |
| CS(=O)(=O)c1ccccc1S(=O)(=O)Nc1ccc2[nH]nc(-c3cccc(Cl)c3)c2c1 | 80 |
| CS(=O)(=O)c1ccccc1S(=O)(=O)Nc1ccc2[nH]nc(N)c2c1 | 72 |
| COc1cccc(-c2n[nH]c3ccc(NS(=O)(=O)c4ccccc4S(C)(=O)=O)cc23)c1 | 67 |
| O=S(=O)(Nc1ccc2[nH]nc(-c3ccccc3)c2c1)c1ccc(Cl)s1 | 65 |
| O=S(=O)(Nc1ccc2[nH]nc(-c3ccc(O)cc3)c2c1)c1ccccc1 | 89 |
| CS(=O)(=O)c1ccccc1S(=O)(=O)Nc1ccc2[nH]nc(-c3cccnc3)c2c1 | 88 |
| CS(=O)(=O)c1ccccc1S(=O)(=O)Nc1ccc2[nH]nc(-c3ccccc3Cl)c2c1 | 52 |
| CS(=O)(=O)c1ccccc1S(=O)(=O)Nc1ccc2[nH]nc(-c3cc4ccccc4s3)c2c1 | 63 |
| CC(C)c1cccc(-c2n[nH]c3ccc(NS(=O)(=O)c4ccccc4S(C)(=O)=O)cc23)c1 | 59 |
| O=S(=O)(Nc1ccc2[nH]nc(-c3cc4ccccc4[nH]3)c2c1)c1cccc(F)c1 | 99 |
| COc1cccc(S(=O)(=O)Nc2ccc3[nH]nc(-c4ccccc4)c3c2)c1 | 68 |
| CS(=O)(=O)c1ccccc1S(=O)(=O)Nc1ccc2[nH]nc(-c3cccc(F)c3F)c2c1 | 50 |
| COc1ccc(-c2n[nH]c3ccc(NS(=O)(=O)c4ccccc4S(C)(=O)=O)cc23)cc1OC | 76 |
| CCSc1ccc(-c2n[nH]c3ccc(NS(=O)(=O)c4ccccc4S(C)(=O)=O)cc23)cc1 | 77 |
| CS(=O)(=O)c1ccccc1S(=O)(=O)Nc1ccc2[nH]nc(-c3cc4ccccc4o3)c2c1 | 93 |
| CS(=O)(=O)c1ccccc1S(=O)(=O)Nc1ccc2[nH]nc(Nc3ccccc3)c2c1 | 100 |

From the Kinase Knowledgebase extract (Sharma et al. 2016)
